Experimental data: paper PMC5027844 (Cancer cell, 2016)

Biological target: ARF6 (Homo sapiens, UniProt P62330)
Assay: fluorometric nucleotide exchange assay
Format: biochemical

Chain of ARF6 (P62330 2-175): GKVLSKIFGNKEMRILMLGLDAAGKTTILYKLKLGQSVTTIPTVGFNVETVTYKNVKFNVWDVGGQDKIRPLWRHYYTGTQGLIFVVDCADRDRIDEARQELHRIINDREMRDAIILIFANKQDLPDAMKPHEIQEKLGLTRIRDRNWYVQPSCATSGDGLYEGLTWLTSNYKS

- IC50: 1000 nM
Substance: NAV-2729
